# Measurements published in publication PMC2710618 (Biochemistry, 2008).
# Values joined by “and” are separate entries in the source; they are usually repeats but may differ in a detail not shown here. Equal values may be shown once. “Also recorded” adds a separate entry of the source. Read-outs that look alike come from different tables or passages of the source.
# Tests used:
# [1] = target: T1, B. anthracis OSB-CoA synthetase (Bacillus anthracis, UniProt Q81K97); experiment: biochemical; type: biochemical; settings: for Km: read-out: Apparent Km
# [2] = target: T1, B. anthracis OSB-CoA synthetase; experiment: biochemical; type: biochemical; settings: for Km: read-out: Km of varied substrate
# [3] = target: T1, B. anthracis OSB-CoA synthetase; experiment: biochemical; type: binding
# B. anthracis ∆ANR strain = type: cell-based, Bacillus anthracis
# T1 sequence (Q81K97 whole entry, looked up): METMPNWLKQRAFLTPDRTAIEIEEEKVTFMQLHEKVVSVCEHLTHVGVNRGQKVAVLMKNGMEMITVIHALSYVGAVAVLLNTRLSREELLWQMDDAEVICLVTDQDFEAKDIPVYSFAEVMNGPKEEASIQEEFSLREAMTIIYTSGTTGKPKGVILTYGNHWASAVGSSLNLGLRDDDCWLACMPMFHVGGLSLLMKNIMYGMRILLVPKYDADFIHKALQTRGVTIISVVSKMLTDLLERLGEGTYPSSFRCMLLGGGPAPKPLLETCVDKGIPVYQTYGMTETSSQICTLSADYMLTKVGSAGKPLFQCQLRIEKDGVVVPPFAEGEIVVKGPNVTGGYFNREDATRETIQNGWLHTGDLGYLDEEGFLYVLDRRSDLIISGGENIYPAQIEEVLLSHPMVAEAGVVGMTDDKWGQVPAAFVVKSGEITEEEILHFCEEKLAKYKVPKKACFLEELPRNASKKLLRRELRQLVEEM
compound,measurement,setting,value
O=C(O)CCC(=O)c1ccccc1C(F)(F)F,decrease in kcat/Km compared to OSB,[1],100 fold
Nc1ncnc2c1ncn2[C@@H]1O[C@H](COP(=O)(O)O)[C@@H](O)[C@H]1O [AMP],"Ki / αKi values, range in words",[2],millimolar range
same,Ki,[2],3600 µM and 4600 µM
Nc1ncnc2c1ncn2[C@@H]1O[C@H](COP(=O)(O)OP(=O)(O)OP(=O)(O)O)[C@@H](O)[C@H]1O [ATP],Kd,[3],131 ± 22 µM
same,binding to free enzyme,[3],No significant binding
same,kcat,"[1]; pH 7.5, 21°C",2.55 ± 0.0533 s⁻¹
same,Km,"[1]; pH 7.5, 21°C",26.8 ± 2.7 µM
"CC(C)(COP(=O)(O)OP(=O)(O)OC[C@H]1O[C@@H](n2cnc3c(N)ncnc32)[C@H](O)[C@@H]1OP(=O)(O)O)[C@@H](O)C(=O)NCCC(=O)NCCSC(=O)c1ccccc1 [Benzoyl-CoA, benzoyl-CoA]",Inhibition pattern,[2],mixed-type
same,"Ki / αKi values, range in words",[2],millimolar range
same,αKi,[2],15.3 ± 2.6 mM
same,Ki,[2],3000 ± 500 µM
CC(C)(COP(=O)(O)OP(=O)(O)OC[C@H]1O[C@@H](n2cnc3c(N)ncnc32)[C@H](O)[C@@H]1OP(=O)(O)O)[C@@H](O)C(=O)NCCC(=O)NCCS [CoA],binding to enzyme-Mg^2+ATP complex,[3],no significant binding
same,binding to free enzyme,[3],no significant binding
same,kcat,[1]; pH 7.5,2.6 ± 0.075 s⁻¹
same,Km,[1],279 µM and 194 µM and 269 µM and 231 µM
same,Km,[1]; pH 7.5,304 ± 22.1 µM
same,Km,[2],49.9 µM and 66.2 µM and 39.3 µM
"O=C(O)CCC(=O)c1ccccc1C(F)(F)F [Compound 5, 4-(2-trifluoromethylphenyl)-4-oxobutyric acid]",reduction in kcat compared to OSB,[1],10 fold
same,remaining activity at 1000 µM,[1]; read-out: residual activity as substrate,5.8%
"O=C(O)CCC(=O)c1ccccc1C(=O)O [OSB, o-succinylbenzoate]",binding to free enzyme,[3],no significant binding
same,kcat,"[1]; pH 7.5, 21°C",2.58 ± 0.06 s⁻¹
same,Km,"[1]; pH 7.5, 21°C",21.9 ± 2 µM
same,Km,[2],3.6 µM and 2.8 µM
"Nc1ncnc2c1ncn2[C@@H]1O[C@H](COS(=O)(=O)NC(=O)CCC(=O)c2ccccc2C(F)(F)F)[C@@H](O)[C@H]1O [TFMP-butyl-AMS, 5’-O-(N-(2-trifluoromethylphenyl)-4-oxobutyl) adenosine sulfonamide]",whole cell activity,B. anthracis ∆ANR strain,limited whole cell activity
same,"Ki / αKi values, range in words",[2],low micromolar; also recorded: lower micromolar range
same,αKi (affinity to enzyme-ATP complex),[2],108 ± 17.0 µM
same,Ki,[2],5.6 µM and 5.2 µM
